# Assay: Measurement of pKa by absorption spectrum on addition of perchloric acid
# Format: physicochemical
# Conditions: in acetonitrile, 70% perchloric acid (solvent: acetic acid) added dropwise; proton adduct at nitrogen of triazine ring
# Method: Compound (2) was dissolved in acetonitrile to give an absorbance of 1 and to this solution, 70% perchloric acid (solvent: acetic acid) was added dropwise, thereby varying the pH. At this time, the absorption spectrum of solution was measured and based on the absorbance at λmax, the proportions of a triazine-free form and a proton adduct were calculated at each pH. From the point at which these values became equal, the pKa value was determined. Here, the triazine-free form indicates Compound (2) itself, and the proton adduct indicates a compound resulting from addition of a proton to the nitrogen atom of triazine ring of Compound (2). Compounds (21), (24), (120), (m-2), (m-3), (m-4), (m-21), (m-31), (m-20) and (m-1), and as comparative compounds, (Example A1) and (Example A2) were determined for the pKa value in the same manner. The absorption spectrum was measured using a spectrophotometer, UV-3600 (trade name), manufactured by Shimadzu Corporation, and the pH was measured using a pH meter, HM60G (trade name), manufactured by To a Denpa Kogyo. Incidentally, the absorbance is a value measured at the maximum absorption wavelength of each compound.
row,pKa,SMILES
1,-5,CC(CCOC(=O)c1ccc(-c2nc(-c3ccccc3O)nc(-c3ccccc3O)n2)cc1)CC(C)(C)C (stereo not shown) [(120)]
2,-5,Oc1ccccc1-c1nc(-c2cccc(Cl)c2)nc(-c2ccccc2O)n1 [(m-4)]
3,-5,CCCCC(CC)COC(=O)c1ccc(-c2nc(-c3ccccc3O)nc(-c3ccccc3O)n2)cc1 (stereo not shown) [Compound (21)]
4,-5,CCC(C)CCCCCC(CCCC(C)CC)COC(=O)c1ccc(-c2nc(-c3ccccc3O)nc(-c3ccccc3O)n2)cc1 (stereo not shown) [(24)]

# From US8623990B2, “Polyester resin composition” (FUJIFILM Corporation, priority 2010, dated 2014)
